Key:
[1] = Molar enthalpy of transition or fusion; conditions: Crystal; Adiabatic calorimetry

Cc1ccc2nc(C)ccc2c1 [2,6-dimethylquinoline]
Conditions	Molar enthalpy of transition or fusion [kcal/mol]
[1]	4.88

Liquid
Conditions	vapor or sublimation pressure [kPa]
336.99 K, Inclined piston gauge	0.0375
339.98 K, Inclined piston gauge	0.0461
349.98 K, Inclined piston gauge	0.0877
359.98 K, Inclined piston gauge	0.1589
369.98 K, Inclined piston gauge	0.2786
379.97 K, Inclined piston gauge	0.4711
389.97 K, Inclined piston gauge	0.7716
399.97 K, Inclined piston gauge	1.227
404.97 K, Inclined piston gauge	1.532
409.97 K, Inclined piston gauge	1.899
411.21 K, Twin ebulliometer	2
414.96 K, Inclined piston gauge	2.34
428.45 K, Twin ebulliometer	3.987
436.24 K, Twin ebulliometer	5.329
447.73 K, Twin ebulliometer	7.992
456.33 K, Twin ebulliometer	10.65
463.33 K, Twin ebulliometer	13.33
470.57 K, Twin ebulliometer	16.66
476.57 K, Twin ebulliometer	19.93
484.49 K, Twin ebulliometer	25.02
492.47 K, Twin ebulliometer	31.19
500.45 K, Twin ebulliometer	38.56
508.5 K, Twin ebulliometer	47.36
516.61 K, Twin ebulliometer	57.81
524.76 K, Twin ebulliometer	70.1
532.96 K, Twin ebulliometer	84.5
541.22 K, Twin ebulliometer	101.3
549.51 K, Twin ebulliometer	120.76
557.86 K, Twin ebulliometer	143.19
566.25 K, Twin ebulliometer	168.98
574.7 K, Twin ebulliometer	198.44
583.18 K, Twin ebulliometer	231.96
591.71 K, Twin ebulliometer	269.97

Conditions	Critical temperature [K]	Triple point temperature [K]	mass density [kg/m3]
348.13 K, Liquid	–	–	995.1
373.12 K, Liquid	–	–	975.8
398.12 K, Liquid	–	–	956.9
423.12 K, Liquid	–	–	938.7
448.11 K, Liquid	–	–	914.4
473.11 K, Liquid	–	–	894
498.11 K, Liquid	–	–	872.2
523.11 K, Liquid	–	–	849.2
Crystal, Adiabatic calorimetry	–	330.84	–
Liquid, DTA	786	–	–

Source: the NIST ThermoML archive (doi:10.1016/j.jct.2006.10.012)
